# Laboratory results: patent US20140193831A1, “SEED TRAIT PREDICTION BY ACTIVITY-BASED PROTEIN PROFILING” (GAUTIER SEMENCES, priority 2011, published 2014)
# Tests used:
# seed proteins = assay: ABPP labelling of a tomato seed extract with four fluorescent probes in parallel (FIG. 2); format: biochemical; conditions: plant seed extract, 2 μM probe, buffers NaOAc pH 5.5 or Tris pH 7.6 with 1 mM DTT
# diagnostic marker 4 = assay: Single seed-ABPP of unprimed and primed tomato seeds with MV151 (FIG. 17); format: biochemical; conditions: 4 hours, Tris pH 7.5
# From the text: A: Structure of MV151 (see also FIG. 7). This probe consists of a vinylsulfonate (VS) reactive groups, a leucine tripeptide binding group as linker, and a fluorescence bodipy reporter tag (left grey circle) (MV151: Verdoes et al., (2006) Chem. Biol. 13: 1217-1226). B: MV151 was used for detection of a diagnostic marker for primed seeds in tomato. […] Proteins were separated on 14% protein gels and analyzed by scanning for fluorescent proteins (ex 532 nm/em 575 nm) and stained with coomassie. […] This is an Example of successful identification of primed seeds by ABPP of the present invention without need for germination of the seeds.
compound,measurement,setting,value
COc1ccc(C2=[N+]3C(=Cc4c(C)c(CCC(=O)NCCCCCC(=O)NCCCCCC(=O)NCCCCCC(=O)N[C@@H](CC(C)C)C(=O)N[C@@H](CC(C)C)C(=O)N[C@H](/C=C/S(C)(=O)=O)CC(C)C)c(C)n4[B-]3(F)F)C=C2)cc1 [MV151],labelling of seed proteins on fluorescence gel,seed proteins,Robust labelling
same,seeds in which diagnostic marker 4 is detected,"diagnostic marker 4; primed A1 seeds, 14 of 14, 2 μM probe",100%
same,seeds in which diagnostic marker 4 is detected,"diagnostic marker 4; unprimed A1 seeds, 4 of 14, 2 μM probe",36%
